Source: publication PMC4577076, “Detoxification of Indole by an Indole-Induced Flavoprotein Oxygenase from Acinetobacter baumannii” (PLoS ONE, 2015)

Molecular target: T1, IifC (Acinetobacter baumannii, UniProt A0ABX6CFV1)
T1 construct: gene styA; full length, 412 aa; pQE-80L (BamHI/PstI); expressed in E. coli CY15000 (tnaA mutant); purified by Q-Sepharose anion exchange
T1 sequence (A0ABX6CFV1 1-412): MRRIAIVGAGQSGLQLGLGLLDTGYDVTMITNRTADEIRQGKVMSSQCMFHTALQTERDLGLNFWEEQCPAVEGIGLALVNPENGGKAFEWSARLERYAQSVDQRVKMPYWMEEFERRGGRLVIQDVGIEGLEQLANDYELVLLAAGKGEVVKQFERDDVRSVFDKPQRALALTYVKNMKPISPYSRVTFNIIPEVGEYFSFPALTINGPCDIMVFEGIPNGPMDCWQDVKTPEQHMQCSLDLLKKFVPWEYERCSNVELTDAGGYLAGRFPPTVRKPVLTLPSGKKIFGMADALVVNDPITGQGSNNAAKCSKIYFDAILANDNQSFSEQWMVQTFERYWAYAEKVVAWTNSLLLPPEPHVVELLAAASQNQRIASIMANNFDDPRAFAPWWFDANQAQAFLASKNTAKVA
Assay: FAD content of purified protein
Type: binding
Settings: as purified from E. coli; non-covalently bound

Cc1cc2nc3c(=O)[nH]c(=O)nc-3n(C[C@H](O)[C@H](O)[C@H](O)COP(=O)(O)OP(=O)(O)OC[C@H]3O[C@@H](n4cnc5c(N)ncnc54)[C@H](O)[C@@H]3O)c2cc1C [flavin adenine dinucleotide]
mol FAD per mol protein: 0.48 mol/mol
